Measured values published in patent US12605358B2, “Composition for preventing or treating nervous system diseases comprising compound that inhibits mTOR signaling pathway as active ingredient” (ALIAD BIOPHARMA, priority 2021, dated 2026).

Tests used:
[1] = tested on: primary cultured hippocampal neurons; assay: LC3-eGFP puncta formation assay (autophagy promotion); format: cell-based, rat; details: rapamycin and HN-1703 at 0.1 μM and 0.5 μM respectively, 12 hours; FIG. 3A
Experimental: Primary neurons culture was performed from the hippocampus of rat (SD, Orient Bio) embryonic 16-day (E16) embryos. The left and right hemispheres of the extracted brain were separated using sterile tweezers under a dissecting microscope, the meninges were peeled off, the hippocampus was cut with No. 55 tweezers, and neural progenitor cells were mechanically dissolved in a Ca^2+/Mg^2+-free HBSS (Invitrogen) solution by pipetting with a pasteur pipette (Falcon, 354647). Undissolved tissues or vascular cells were settled, and then a supernatant was taken to measure the cell number and the isolated cells were seeded at 19,000 cells/cm^2 in a 35 mm culture dish coated with poly-L-ornithine (sigma, P3655) and fibronectin (sigma, F4759). The cells were cultured using a serum-free N2 medium (growth medium) added with 10 ng/mL bFGF (Invitrogen) in a 5% CO2 incubator, and the culture medium was replaced after 6 hours and after 24 hours. After 2 days, when the cells proliferated twice or more, subculture was performed.
After 3 days of the primary neural progenitor cell culture, a process of subculturing with 0.05% trypsin was repeated twice, and DNA electroporation or transfection was performed before seeding. […]
The number of cell nuclei labeled with DAPI and the number of cells expressing green fluorescence by overlapping LC3-eGFP expression and DAPI labeling were measured. The number of eGFP-LC3 puncta was measured per cell, and the signal intensity of puncta was measured using a confocal laser microscope program. […]
The autophagy promoting effect of HN-1703 in neurons differentiated by culturing hippocampal neural progenitor cells from rat embryos (E16) was evaluated by performing an LC3-eGFP puncta formation assay. The neural progenitor cells into which an LC3-eGFP recombinant gene was introduced by electroporation were differentiated into neurons, treated with rapamycin and HN-1703 at concentrations of 0.1 μM and 0.5 μM for 12 hours, respectively, and the puncta of LC3-GFP were scanned with a confocal laser microscope (Zeiss, LSM800) to measure the fluorescence intensity of LC3-eGFP and the number of puncta, and the results were illustrated in FIG. 3. Specifically, FIG. 3A illustrates confocal scanning micrographs of LC3-eGFP puncta formation after treated primary cultured hippocampal neurons overexpressing an LC3-eGFP fusion protein with HN-1703, and quantifying the number and fluorescence intensity of LC3-eGFP puncta per cell, and FIG. 3B illustrates a result of LC3-II turnover analysis.

[2] = tested on: 5xFAD transgenic mice; assay: Neurogenesis (Sox2/DCX/NeuN staining); format: in vivo; details: 10 to 20 mg/kg; compared to the WT normal group; FIG. 17
Experimental: 5xFAD animals were administered with HN-1703 at three doses for 14 days to male heterozygotes aged 6 months (all born within 3 days). The behaviors of mice were measured in a dark cycle in which the mice were active while alternating light and dark in a 12-hour cycle in a breeding room chamber, and the mice were freely accessible to food and water and bred in compliance with experimental animal ethical guidelines of Kyung Hee University. In each group, the HN-1703 was intraperitoneally injected at the same time once a day in a volume of 100 μl to 12 mice in a normal group (wild type littermate), 9 5xFAD mice in a vehicle (DMSO administration), 8 5xFAD mice in a 5 mg/kg administered group, 9 5xFAD mice in a 10 mg/kg administered group, and 9 5xFAD mice in a 20 mg/kg administered group. […] Behavioral measures were measured in Y-maze, Morris Water Maze, and Passive Avoidance test for 18 days in sequence. […]
FIG. 17 illustrates confocal scanning micrographs of a subgranular zone region of the hippocampal dentate gyrus after triple staining with an NeuN antibody as a neuron marker, an Sox2 antibody as a type1 neural progenitor cell marker, and a DCX antibody as a differentiating and migrating type3 neural precursor cell marker, and quantifying the number of Sox2+/NeuN+ cells and the number of DCX+/NeuN+ cells.

Q: `COc1cc(OC)c2c(=O)c3cc4c(cc3oc2c1)OCO4` [HN-1703, 7,9-dimethoxy-10H-[1,3]dioxolo[4,5-b]xanthen-10-one] was tested. Which “increase of the number of LC3-eGFP puncta compared to a control group” value [1] did it give?
A: ≥ 85%

Q: What about the “increase of the signal intensity of LC3-eGFP puncta compared to the control group” value [1] of the same molecule?
A: ≥ 45%

Q: What about the “DCX+ neural progenitor cells” value [2] of the same molecule?
A: twice or more

Q: What about the “Sox2+ neural progenitor cells” value [2] of the same molecule?
A: more Sox2+ neural progenitor cells were observed
